These results are taken from ChEMBL document CHEMBL1159104, “Potent transglutaminase inhibitors, aryl beta-aminoethyl ketones” (Bioorg Med Chem Lett, 2010).

Molecules are shown by their SMILES. pIC50: −log10 of the molar value.

For the experiment, the target named is T1, Protein-glutamine gamma-glutamyltransferase (Cavia porcellus, UniProt Q7M0F8).
T1 sequence (Q7M0F8 whole entry): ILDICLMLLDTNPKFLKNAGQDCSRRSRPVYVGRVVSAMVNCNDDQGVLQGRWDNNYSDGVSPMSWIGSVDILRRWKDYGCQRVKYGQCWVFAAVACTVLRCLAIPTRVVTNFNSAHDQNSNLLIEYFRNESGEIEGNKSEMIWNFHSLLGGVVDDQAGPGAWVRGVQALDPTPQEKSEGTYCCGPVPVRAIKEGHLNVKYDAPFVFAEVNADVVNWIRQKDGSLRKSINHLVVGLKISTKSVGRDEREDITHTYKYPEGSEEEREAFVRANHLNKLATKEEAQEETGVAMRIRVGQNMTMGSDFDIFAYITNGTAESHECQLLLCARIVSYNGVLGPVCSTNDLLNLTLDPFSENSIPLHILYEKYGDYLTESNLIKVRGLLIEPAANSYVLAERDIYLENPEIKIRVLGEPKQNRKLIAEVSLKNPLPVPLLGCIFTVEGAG
The experiment in a line: Inhibition of guinea pig liver transglutaminase.
A word on the pIC50: it is −log10 of the IC50, conventionally taken in molar units. A high value points to a low IC50. The compound `CN(CCO)CCC(=O)c1ccsc1` gave a negative logarithm of the IC50 (pIC50) of 4.85. With `CCN(CCC(=O)c1ccco1)Cc1ccccc1`, the pIC50 is 6.26. With `CC(C)N(CCC(=O)c1nccs1)Cc1ccccc1` the figure was 5.49; with `O=C(CCN(CCO)CCO)c1ccco1`, 6.44. To `CC(C)(C)N(CCC(=O)c1ccco1)Cc1ccccc1` belongs 6.19; to `CCCCN(CCO)CCC(=O)c1ccc(C)o1`, 6.10. With `CCc1nccnc1C(=O)CCN(Cc1ccccc1)C(C)C` the figure was 6.04; with `CN(CCC(=O)c1cnccn1)Cc1ccccc1`, 5.92; with `CCCCN(CCO)CCC(=O)c1ccccn1`, 5.00. `CCCCN(CCO)CCC(=O)c1cccnc1` gave a pIC50 of 5.57. In turn, `CN(CCO)CCC(=O)c1ccncc1` gave a negative logarithm of the IC50 (pIC50) of 5.10. To `O=C(CCN(CCO)CCO)c1ccncc1` belongs 5.46; to `CCCCN(CCO)CCC(=O)c1ccncc1`, 5.60; to `CC(C)N(CCO)CCC(=O)c1cccs1`, 5.19. To `CC(C)N(CCO)CCC(=O)c1ccc(Cl)s1` belongs 5.27; to `CC(C)N(CCO)CCC(=O)c1cnccn1`, 5.16; to `CN(CCC(=O)c1ccco1)Cc1ccccc1`, 5.74. With `CC(C)(C)N(CCO)CCC(=O)c1ccncc1` the figure was 4.96; with `Cc1ccc(C(=O)CCN(Cc2ccccc2)C(C)(C)C)o1`, 5.64. In turn, `CC(C)N(CCC(=O)c1ccco1)Cc1ccccc1` showed a pIC50 of 6.49. To `CCc1nccnc1C(=O)CCN(CCO)CCO` belongs 4.82; to `O=C(CCN(CCO)Cc1ccccc1)c1ccncc1`, 5.60. `Cc1ccc(C(=O)CCN(Cc2ccccc2)C(C)C)o1` gave a negative logarithm of the IC50 (pIC50) of 6.49. To `CCN(CCC(=O)c1ccncc1)Cc1ccccc1` belongs 5.85; to `CCCCN(CCO)CCC(=O)c1cccs1`, 4.72; to `O=C(CCN(CCO)Cc1ccccc1)c1cccs1`, 5.00. To `CN(CCO)CCC(=O)c1cccs1` belongs 5.40; to `CCCCN(CCO)CCC(=O)c1ccc(Br)s1`, 5.85; to `CCc1nccnc1C(=O)CCN(Cc1ccccc1)C(C)(C)C`, 5.77. In turn, `CC(C)(C)N(CCC(=O)c1ccc(Cl)s1)Cc1ccccc1` gave a pIC50 of 7.00. `CCN(CCC(=O)c1ccc(Cl)s1)Cc1ccccc1`: the negative-log IC50 (pIC50) was 6.38. Consider `O=C(CCN(CCO)Cc1ccccc1)c1ccc(Cl)s1`, for which the pIC50 is 5.82. To `CN(CCC(=O)c1ccccn1)Cc1ccccc1` belongs 4.77; to `CC(C)(C)N(CCO)CCC(=O)c1ccco1`, 5.35. With `CCCCN(CCO)CCC(=O)c1ccco1` the figure was 6.08; with `CCCCN(CCO)CCC(=O)c1ncc(C)s1`, 5.64; with `CC(C)(C)N(CCC(=O)c1ccccc1)Cc1ccccc1`, 5.77. To `CCN(CCC(=O)c1ccccn1)Cc1ccccc1` belongs 5.57; to `CC(C)(C)N(CCC(=O)c1ccccn1)Cc1ccccc1`, 6.00; to `CC(C)N(CCC(=O)c1ccccn1)Cc1ccccc1`, 5.96.

For `Cc1ccc(C(=O)CCN(CCO)C(C)C)o1`, the pIC50 was 6.38. To `Cc1ccc(C(=O)CCN(CCO)Cc2ccccc2)o1` belongs 5.18; to `CN(CCC(=O)c1ccncc1)Cc1ccccc1`, 5.70. With `CN(CCO)CCC(=O)c1ccccn1` the figure was below 4.52; with `CC(C)(C)N(CCO)CCC(=O)c1ccccn1`, 4.92.

Compound `CN(CCO)CCC(=O)c1cnccn1` gave a pIC50 of 5.00. For `CC(C)N(CCC(=O)c1ccc(Br)s1)Cc1ccccc1`, the negative logarithm of the IC50 (pIC50) is 6.72. With `CC(C)(C)N(CCC(=O)c1ccc(Br)s1)Cc1ccccc1` the figure was 7.09. To `CC(C)(C)N(CCC(=O)c1cc2ccccc2s1)Cc1ccccc1` belongs 6.68; to `O=C(CCN(CCO)CCO)c1ccccn1`, 5.29.

Consider `CC(C)N(CCO)CCC(=O)c1ccccn1`, for which the negative-log IC50 (pIC50) was 5.27. To `O=C(CCN(CCO)Cc1ccccc1)c1ccncn1` belongs 5.31; to `CC(C)(C)N(CCO)CCC(=O)c1cnccn1`, 5.57; to `CCCCN(CCO)CCC(=O)c1cnccn1`, 5.77.

As for `CC(C)N(CCO)CCC(=O)c1cc2ccccc2s1`, the negative-log IC50 (pIC50) is 5.03. To `CC(C)(C)N(CCC(=O)c1nccs1)Cc1ccccc1` belongs 5.85. In the case of `O=C(CCN(CCO)Cc1ccccc1)c1cnccn1`, the negative-log IC50 (pIC50) is 5.82. With `CCN(CCC(=O)c1cnccn1)Cc1ccccc1` the figure was 6.17.

For `O=C(CCN(CCO)Cc1ccccc1)c1nccs1`, the pIC50 is 5.07.

As to `CC(C)N(CCO)CCC(=O)c1nccs1`, the pIC50 was 4.80.

For the compound `O=C(CCN(CCO)CCO)c1nccs1`, the pIC50 is 5.16. Consider `CN(CCO)CCC(=O)c1cccnc1`, for which the pIC50 was 5.28. To `CC(C)N(CCC(=O)c1cnccn1)Cc1ccccc1` belongs 6.28; to `CC(C)(C)N(CCO)CCC(=O)c1nccs1`, 5.00; to `CN(CCO)CCC(=O)c1nccs1`, 5.33. With `Cc1cnc(C(=O)CCN(C)Cc2ccccc2)s1` the figure was 5.74; with `CC(C)(C)N(CCO)CCC(=O)c1cccnc1`, 5.11; with `O=C(CCN(CCO)CCO)c1cccnc1`, 5.48. With `CC(C)N(CCO)CCC(=O)c1cccnc1` the figure was 5.13; with `O=C(CCN(CCO)Cc1ccccc1)c1cccnc1`, 5.64; with `CN(CCC(=O)c1cccnc1)Cc1ccccc1`, 5.40. Regarding `O=C(CCN(CCO)Cc1ccccc1)c1ccccc1`, the pIC50 was 4.96. To `Cc1ccc(C(=O)CCN(CCO)C(C)(C)C)o1` belongs 6.17. To `CC(C)(C)N(CCC(=O)c1cccs1)Cc1ccccc1` belongs 6.36. With `CC(C)N(CCC(=O)c1cccs1)Cc1ccccc1` the figure was 5.85.

`CC(C)N(CCO)CCC(=O)c1ccncc1` showed a pIC50 of 5.32. With `CC(C)N(CCC(=O)c1ccc(C#N)cc1)Cc1ccccc1` the figure was 6.23. As for `CC(C)(C)N(CCC(=O)c1cccnc1)Cc1ccccc1`, the pIC50 is 6.33. With `CC(C)N(CCC(=O)c1cccnc1)Cc1ccccc1` the figure was 6.08; with `CCN(CCC(=O)c1ccc(C)o1)Cc1ccccc1`, 5.55.

For `CCN(CCC(=O)c1cccs1)Cc1ccccc1`, the pIC50 was 5.68. With `CN(CCC(=O)c1cccs1)Cc1ccccc1` the figure was 5.00; with `CC(C)N(CCC(=O)c1ccncc1)Cc1ccccc1`, 6.08; with `CC(C)N(CCO)CCC(=O)c1ccsc1`, 4.96.

As for `CCCCN(CCO)CCC(=O)c1ccsc1`, the pIC50 was 4.92. To `CCN(CCC(=O)c1ccsc1)Cc1ccccc1` belongs 4.92. To `O=C(CCN(CCO)CCO)c1cnccn1` belongs 5.92; to `CN(CCC(=O)c1ccsc1)Cc1ccccc1`, 5.00; to `O=C(CCN(CCO)Cc1ccccc1)c1ccsc1`, 4.92. With `CN(CCO)CCC(=O)c1ccco1` the figure was 5.92; with `CC(C)N(CCO)CCC(=O)c1ccccc1`, 5.00; with `O=C(CCN(CCO)CCO)c1ccc(Cl)s1`, 5.72. Turning to `CC(C)N(CCC(=O)c1ccsc1)Cc1ccccc1`, the pIC50 is 5.07. With `CC(C)(C)N(CCC(=O)c1ccsc1)Cc1ccccc1` the figure was 4.96; with `CC(C)N(CCC(=O)c1cc2ccccc2s1)Cc1ccccc1`, 6.11. With `CC(C)N(CCC(=O)c1cc(Cl)sc1Cl)Cc1ccccc1` the figure was 6.01. To `CC(C)N(CCO)CCC(=O)c1cc(Cl)sc1Cl` belongs 5.60; to `O=C(CCN(CCO)CCO)c1ccsc1`, 4.89; to `O=C(CCN(CCO)Cc1ccccc1)c1csc(Cl)c1`, 5.57. `CC(C)(C)N(CCC(=O)c1ccncc1)Cc1ccccc1` had a negative-log IC50 (pIC50) of 5.85. With `CCN(CCC(=O)c1cccnc1)Cc1ccccc1` the figure was 5.77.

The compound `Cc1ccc(C(=O)CCN(CCO)CCO)o1` gave a pIC50 of 5.19.

Regarding `CCc1nccnc1C(=O)CCN(CCO)Cc1ccccc1`, the pIC50 was 4.74.

On to `CN(CCC(=O)c1ccc(Cl)s1)Cc1ccccc1`, for which the pIC50 is 6.00. For the compound `CC(C)(C)N(CCC(=O)c1cnccn1)Cc1ccccc1`, the negative logarithm of the IC50 (pIC50) was 6.24.

Turning to `CN(CCC(=O)c1nccs1)Cc1ccccc1`, the pIC50 is 5.37. Compound `CCc1nccnc1C(=O)CCN(CCO)C(C)C` had a pIC50 of 5.11. `Cc1ccc(C(=O)CCN(C)CCO)o1`: the pIC50 is 5.85. To `O=C(CCN(CCO)Cc1ccccc1)c1ccco1` belongs 5.89.

The compound `CC(C)N(CCO)CCC(=O)c1ccco1` showed a pIC50 of 6.92. With `CC(C)N(CCC(=O)c1ccccc1)Cc1ccccc1` the figure was 5.25. With `Cc1cnc(C(=O)CCN(Cc2ccccc2)C(C)C)s1` the figure was 6.07.

On to `Cc1ccc(C(=O)CCN(C)Cc2ccccc2)o1`, for which the pIC50 is 5.37.

For `O=C(CCN(CCO)CCO)c1cccs1`, the pIC50 was 5.08. With `CC(C)(C)N(CCO)CCC(=O)c1cccs1` the figure was 5.17; with `CCN(CCC(=O)c1nccs1)Cc1ccccc1`, 5.59.

`CCN(CCC(=O)c1ccc(Br)s1)Cc1ccccc1` showed a pIC50 of 6.21.

Regarding `CC(C)N(CCC(=O)c1ccc(Cl)s1)Cc1ccccc1`, the pIC50 was 6.64.
